≈ marks a conversion by molar mass, not a printed value. Like-named read-outs stand apart in the source and are kept apart here.
What was measured:
[1] = RP-UHPLC lipophilicity parameter log k’w; format: physicochemical; details: for log k’w: RP-UHPLC, acetonitrile/water, log k extrapolated to 0% acetonitrile; for logkw: experimental lipophilicity parameter
Source text: Lipophilicity and water solubility of the drug candidates are important parameters as they are often directly related to their ADME properties in the organism. Lipophilicity is usually expressed as the logarithm of the partition coefficient in n-octanol/water (log P). Due to its laborious determination, especially in the HTS screening, other experimental methods such as RP-HPLC log k’w or purely computational approaches such as Clog P were proposed and have been established as reasonable estimators of true lipophilicity. To investigate the changes in lipophilicity upon introduction of oxazole in the title compounds, we determined the log k’w of all derivatives and compared respective values among the pairs.
The log k of the synthesized compounds was measured using the same instrument (single measurement per concentration), software, and column as was used in the purity evaluation. Working solutions were diluted as described above for purity determination. The log k parameter was calculated after the UHPLC measurements using isocratic mode with mobile phase acetonitrile (B)/water (A) in a set of concentrations of 40, 45, 50% and 20, 30, 40% B for subtype I and subtype II, respectively.

HepG2 cells = assay: HepG2 cytotoxicity screening (CellTiter 96); format: cell-based, human; details: for IC50: Homo sapiens, HepG2, 24 h, 24 h incubation, CellTiter 96, * above highest tested concentration, ** limited by insolubility in medium; for SI: SI = IC50 (µM) HepG2 / MICH37Ra (µM)
[2] = system: Mycobacterium tuberculosis H37Ra ITM-M006710 (ATCC 9431); assay: Antimycobacterial MIC, microdilution broth / Alamar Blue (resazurin); format: cell-based; details: for MIC: Mycobacterium tuberculosis
[3] = system: M. smegmatis DSM 43465 (ATCC 607); assay: Antimycobacterial MIC, microdilution broth / resazurin; format: cell-based; details: Mycolicibacterium smegmatis; resazurin after 48 h; read-out: MIC M. smegmatis
[4] = system: M. aurum DSM 43999 (ATCC 23366); assay: as above; format: cell-based; details: Mycolicibacterium aurum; resazurin after 72 h; read-out: MIC M. aurum
[5] = system: M. avium DSM 44156 (ATCC 25291); assay: as above; format: cell-based, Mycobacterium avium; details: Mycobacterium avium; resazurin after 96 h; read-out: MIC M. avium
[6] = system: M. kansasii DSM 44162 (ATCC 12478); assay: as above; format: cell-based; details: Mycobacterium kansasii, read-out: MIC M. kansasii
[7] = system: Staphylococcus aureus subsp. aureus CCM 4223 (ATCC 29213); assay: Antibacterial microdilution broth (EUCAST); format: cell-based; details: Staphylococcus aureus; 24h incubation; read-out: MIC SA
[8] = system: Staphylococcus aureus subsp. aureus (MRSA) CCM 4750 (ATCC 43300); assay: Antibacterial microdilution broth (EUCAST); format: cell-based; details: Staphylococcus aureus; 24h incubation; read-out: MIC MRSA
[9] = system: Staphylococcus epidermidis CCM 4418 (ATCC 12228); assay: Antibacterial microdilution broth (EUCAST); format: cell-based; details: Staphylococcus epidermidis; 24h incubation; read-out: MIC SE
[10] = system: Enterococcus faecalis CCM 4224 (ATCC 29212); assay: Antibacterial microdilution broth (EUCAST); format: cell-based; details: Enterococcus faecalis; 24h incubation; read-out: MIC EF
[11] = system: Escherichia coli CCM 3954 (ATCC 25922); assay: Antibacterial microdilution broth (EUCAST); format: cell-based; details: Escherichia coli; 24h incubation; read-out: MIC EC
[12] = system: Acinetobacter baumannii DSM 30007 (ATCC 19606); assay: Antibacterial microdilution broth (EUCAST); format: cell-based; details: Acinetobacter baumannii; 24h incubation; read-out: MIC AB
[13] = system: Pseudomonas aeruginosa CCM 3955 (ATCC 27853); assay: Antibacterial microdilution broth (EUCAST); format: cell-based; details: Pseudomonas aeruginosa; 72h incubation; read-out: MIC PA
[14] = system: Candida albicans CCM 8320 (ATCC 24433); assay: Antifungal microdilution broth (EUCAST); details: Candida albicans, 24 h, read-out: MIC CA
[15] = system: Candida krusei CCM 8271 (ATCC 6258); assay: Antifungal microdilution broth (EUCAST); details: Pichia kudriavzevii, 24 h, read-out: MIC CK
[16] = system: Candida parapsilosis CCM 8260 (ATCC 22019); assay: Antifungal microdilution broth (EUCAST); details: Lodderomyces parapsilosis, 24 h, read-out: MIC CP
[17] = system: Candida tropicalis CCM 8264 (ATCC 750); assay: Antifungal microdilution broth (EUCAST); details: Candida tropicalis, 24 h, read-out: MIC CT
[18] = system: Aspergillus fumigatus ATCC 204305; assay: Antifungal microdilution broth (EUCAST); details: Aspergillus fumigatus, ATCC204305, 24 h, read-out: MIC AF
[19] = system: Aspergillus flavus CCM 8363; assay: Antifungal microdilution broth (EUCAST); details: Aspergillus flavus, CCM8363, 24 h, read-out: MIC AFla
[20] = system: Lichtheimia corymbifera CCM 8077; assay: Antifungal microdilution broth (EUCAST); details: Lichtheimia corymbifera, CCM8077, 24 h, read-out: MIC LC
[21] = system: Trichophyton interdigitale CCM 8377 (ATCC 9533); assay: Antifungal microdilution broth (EUCAST); details: Trichophyton interdigitale, 72 h, read-out: MIC TI
[22] = 120 h, Middlebrook 7H9, resazurin after 120 h, read-out: Mtb H37Ra MIC
[23] = recalculated from µg/mL, read-out: MICH37Ra
[24] = Middlebrook 7H9, resazurin after 120 h

| SMILES | log k’w [1] | IC50 (HepG2 cells) | MIC [2, 22] | MIC [3] | MIC [4] | MIC [5] | MIC [7] | MIC [8] | MIC [9] | MIC [10] | MIC [11] | MIC [12] | MIC [13] | melting point | MIC [14] | MIC [15] | MIC [16] | MIC [17] | MIC [18] | MIC [19] | other results |
| --- | --- | --- | --- | --- | --- | --- | --- | --- | --- | --- | --- | --- | --- | --- | --- | --- | --- | --- | --- | --- | --- |
| O=C(Nc1nc(-c2ccccc2)co1)c1ccccc1 [Compound 20b] | 2.090 | 330 µM | 62.5 µg/mL | 125 µg/mL (≈ 473 µM) | 31.2 µg/mL (≈ 118 µM) | 31.2 µg/mL (≈ 118 µM) | 250 µM (≈ 66.1 µg/mL) | 500 µM (≈ 132 µg/mL) | 250 µM (≈ 66.1 µg/mL) | > 500 µM | > 500 µM | 500 µM (≈ 132 µg/mL) | > 500 µM | 143 to 145 °C | 500 µM (≈ 132 µg/mL) | 500 µM (≈ 132 µg/mL) | 500 µM (≈ 132 µg/mL) | 500 µM (≈ 132 µg/mL) | 500 µM (≈ 132 µg/mL) | 500 µM (≈ 132 µg/mL) | MIC ([6]; resazurin after 96 h): 31.2 µg/mL (≈ 118 µM); MIC [20]: 500 µM (≈ 132 µg/mL); MIC [21]: 250 µM (≈ 66.1 µg/mL) |
| Cc1cncc(C(=O)Nc2ncco2)c1 [Compound 4b] | 0.888 | > 1000 µM | 7.81 µg/mL | ≥ 500 µg/mL | 31.2 µg/mL (≈ 154 µM) | 125 µg/mL (≈ 615 µM) | 500 µM (≈ 102 µg/mL) | 500 µM (≈ 102 µg/mL) | 500 µM (≈ 102 µg/mL) | > 500 µM | > 500 µM | 500 µM (≈ 102 µg/mL) | > 500 µM | 171 to 175 °C | > 500 µM | > 500 µM | > 500 µM | > 500 µM | > 500 µM | > 500 µM | logkw [1]: 0.8881; SI (HepG2 cells): >26.0; MIC [2, 23]: 38.4 µM; MIC ([6]; resazurin after 96 h): 62.5 µg/mL (≈ 308 µM); MIC [20]: > 500 µM; MIC [21]: > 500 µM |
| O=C(Nc1nc(-c2ccccc2)co1)c1cnccn1 [Compound 17b] | 1.306 | > 1000 µM | 15.6 µg/mL | ≥ 500 µg/mL | 125 µg/mL (≈ 469 µM) | ≥ 500 µg/mL | > 500 µM | > 500 µM | > 500 µM | > 500 µM | > 500 µM | > 500 µM | > 500 µM | 140 to 142 °C | > 500 µM | > 500 µM | > 500 µM | > 500 µM | > 500 µM | > 500 µM | logkw [1]: 1.306; MIC ([6]; 96 h): 15.6 µg/mL (≈ 58.7 µM); MIC [20]: > 500 µM; MIC [21]: > 500 µM |
| O=C(Nc1nc(-c2ccccc2)cs1)c1ccccn1 [Compound 11a] | 3.102 | > 100 µM | 3.91 to 7.81 µg/mL | ≥ 500 µg/mL | ≥ 500 µg/mL | ≥ 500 µg/mL | > 500 µM | > 500 µM | > 500 µM | > 500 µM | > 500 µM | > 500 µM | > 500 µM | 128 to 130 °C | > 500 µM | > 500 µM | > 500 µM | > 500 µM | > 500 µM | > 500 µM | logkw [1]: 3.102; SI (HepG2 cells): >7.2; Mtb H37Ra MIC [2, 24]: 3.91 µg/mL; MIC [2, 23]: 13.9 µM; MIC ([6]; 96 h): 3.91 µg/mL (≈ 13.9 µM); MIC [20]: > 500 µM; MIC [21]: > 500 µM |
| O=C(Nc1nc(-c2ccccc2)co1)c1ccccn1 [Compound 11b] | 2.038 | 883 µM | 3.91 to 7.81 µg/mL | 125 µg/mL (≈ 471 µM) | 31.2 µg/mL (≈ 118 µM) | 31.2 µg/mL (≈ 118 µM) | 500 µM (≈ 133 µg/mL) | 500 µM (≈ 133 µg/mL) | 125 µM (≈ 33.2 µg/mL) | > 500 µM | > 500 µM | > 500 µM | > 500 µM | 107 to 109 °C | 500 µM (≈ 133 µg/mL) | 500 µM (≈ 133 µg/mL) | 500 µM (≈ 133 µg/mL) | 500 µM (≈ 133 µg/mL) | 500 µM (≈ 133 µg/mL) | 500 µM (≈ 133 µg/mL) | logkw [1]: 2.038; SI (HepG2 cells): >67.8; Mtb H37Ra MIC [2, 24]: 3.91 µg/mL; MIC ([2]; read-out: MICH37Ra, recalculated from µg/mL): 14.7 µM; MIC ([6]; 96 h): 3.91 µg/mL (≈ 14.7 µM); MIC [20]: 125 µM (≈ 33.2 µg/mL); MIC [21]: 62.5 µM (≈ 16.6 µg/mL) |
| O=C(Nc1nccs1)c1cnc2ccccc2n1 [Compound 10a] | 2.530 | > 50 µM | ≥ 250 µg/mL | ≥ 250 µg/mL | ≥ 250 µg/mL | ≥ 250 µg/mL | > 500 µM | > 500 µM | > 500 µM | > 500 µM | > 500 µM | > 500 µM | > 500 µM | 251.4 °C | > 500 µM | > 500 µM | > 500 µM | > 500 µM | > 500 µM | > 500 µM | logkw [1]: 2.53; MIC ([6]; resazurin after 96 h): 7.81 µg/mL (≈ 30.5 µM); MIC [20]: > 500 µM; MIC [21]: > 500 µM |
| O=C(Nc1nccs1)c1ccncc1 [Compound 3a] | 1.306 | > 1000 µM | 250 µg/mL | ≥ 500 µg/mL | ≥ 500 µg/mL | ≥ 500 µg/mL | > 500 µM | > 500 µM | > 500 µM | > 500 µM | > 500 µM | > 500 µM | > 500 µM | 194 to 195 °C | > 500 µM | > 500 µM | > 500 µM | > 500 µM | > 500 µM | > 500 µM | logkw [1]: 1.306; MIC ([6]; resazurin after 96 h): 250 µg/mL (≈ 1220 µM); MIC [20]: > 500 µM; MIC [21]: > 500 µM |
| Cc1cncc(C(=O)Nc2nc(-c3ccccc3)co2)c1 [Compound 14b] | 1.478 | > 100 µM | ≥ 250 µg/mL | ≥ 250 µg/mL | ≥ 250 µg/mL | ≥ 250 µg/mL | 250 µM (≈ 69.8 µg/mL) | 250 µM (≈ 69.8 µg/mL) | 250 µM (≈ 69.8 µg/mL) | > 250 µM | > 250 µM | > 250 µM | > 250 µM | 258.6 °C | > 500 µM | > 500 µM | > 500 µM | > 500 µM | > 500 µM | > 500 µM | logkw [1]: 1.478; MIC ([6]; resazurin after 96 h): ≥ 250 µg/mL; MIC [20]: > 500 µM; MIC [21]: > 500 µM |

Reference: publication PMC9143880, “Improving Antimicrobial Activity and Physico-Chemical Properties by Isosteric Replacement of 2-Aminothiazole with 2-Aminooxazole” (Pharmaceuticals, 2022)
